According to article PMC6934184, “Selective DNA-PKcs inhibition extends the therapeutic index of localized radiotherapy and chemotherapy” (The Journal of Clinical Investigation, 2019):

Target: T1, FES (FPS) (Homo sapiens, UniProt P07332)
T1 construct: purchased Thermo Fisher Scientific (Life Technologies) SelectScreen
Assay: SelectScreen Z'LYTE
Format: biochemical
Summary of the method: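 NU5455 was profiled across the SelectScreen Broad panel of kinase activity and binding assays. Z'LYTE reactions such as CSF1R ran at apparent Km ATP, while the Adapta CAMK1 assay used ATP listed as 10. Values are given as percent.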

T1 sequence (P07332 whole entry): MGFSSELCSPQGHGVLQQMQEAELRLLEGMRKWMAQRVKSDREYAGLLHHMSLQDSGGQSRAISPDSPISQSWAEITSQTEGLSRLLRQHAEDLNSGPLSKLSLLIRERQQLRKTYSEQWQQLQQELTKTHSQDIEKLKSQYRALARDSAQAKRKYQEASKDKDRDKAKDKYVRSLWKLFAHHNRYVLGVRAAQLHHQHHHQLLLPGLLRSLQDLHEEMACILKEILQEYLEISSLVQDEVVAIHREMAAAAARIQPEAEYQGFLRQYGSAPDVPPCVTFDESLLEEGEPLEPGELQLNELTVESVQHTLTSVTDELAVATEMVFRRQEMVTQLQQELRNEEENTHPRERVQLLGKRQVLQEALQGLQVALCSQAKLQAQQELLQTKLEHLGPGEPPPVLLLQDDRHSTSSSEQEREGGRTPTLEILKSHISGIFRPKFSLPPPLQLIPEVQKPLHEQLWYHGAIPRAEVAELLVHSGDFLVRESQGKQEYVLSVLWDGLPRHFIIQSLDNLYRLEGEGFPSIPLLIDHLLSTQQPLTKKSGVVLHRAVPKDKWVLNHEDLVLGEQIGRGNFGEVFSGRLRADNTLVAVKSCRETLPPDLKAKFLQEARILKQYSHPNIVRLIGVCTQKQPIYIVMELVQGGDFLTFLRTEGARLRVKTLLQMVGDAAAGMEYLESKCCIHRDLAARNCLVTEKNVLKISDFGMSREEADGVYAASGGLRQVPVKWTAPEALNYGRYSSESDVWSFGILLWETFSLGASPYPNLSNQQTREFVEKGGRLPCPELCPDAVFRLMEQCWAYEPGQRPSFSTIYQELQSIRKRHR

Question: For `CN(C(=O)CN1CCOCC1)c1ccc2sc3c(-c4cccc5c(=O)cc(N6CC7CCC(C6)O7)oc45)cccc3c2c1` [NU5455], which inhibition at 1 µM is on record?
Answer: 10.4%
